SMILES strings stand for the structures.

Common to all, as to assay type: in vivo
Test [1] relates to Puccinia triticina (PUCCRT). As to the kind of experiment: Field assessment of Compound I and penthiopyrad on brown rust of wheat (AUDPC % control). The conditions noted are these: AUDPC-based, 2 field trials. The source says: (§1) Treatments consisting of the compound of Formula I and fungicide compound penthiopyrad were applied either using individually or as a two-way mixture of penthiopyrad with the compound of Formula I. The compound of Formula I was applied with Agnique BP-420 (50% w/w at 0.3% v/v) at 75 and 150 g ai/ha and Penthiopyrad (Vertisan) was applied at 125 and 200 g ai/ha. Commercial standards used in the studies were Fluxapyroxad (Imtrex), applied at 100 g ai/ha, and Metconazole+Fluxapyroxad (Librax), applied at 161 g ai/ha.
Fungicidal treatments containing the compound of Formula I and penthiopyrad, either individually or as a two-way mixture, were assessed against brown rust of wheat (PUCCRT) in two separate field trials. In the first trial, fungicidal treatments were applied at B37-39 (protectant, approximately 0% infection at application) growth stages of wheat (TRZAW, MV Vanek variety) under natural infection of brown rust. The treatment was part of an experimental trial designed as a randomized complete block with four replications and a plot of approximately 2×3 m. Fungicidal treatments were applied at a water volume of 200 L/ha, using a backpack plot sprayer with a TEEJET QJ90-2XTT110 015 Nozzle.
In the second trial, fungicidal treatments containing the compound of Formula I and penthiopyrad, either individually or as a two-way mixture, were applied at B33 (curative, approximately 6.6% infection at application) growth stage of wheat (TRZAW, Miradoux variety) under natural infection of brown rust. The treatments were part of an experimental trial designed as a randomized complete block with four replications and a plot of approximately 2×3 m. Fungicidal treatments were applied at a water volume of 200 L/ha, using a backpack plot sprayer with a HARDI MD 110-02 Nozzle.
(§2) Disease severity (percentage of visual diseased foliage on whole plot or leaves) in both field trials was recorded following EPPO PP1/26 guideline prescriptions. Area under the disease progress curve (AUDPC) was calculated for each plot in both trials using the sets of recorded severity data. Relative AUDPC (% control based on AUDPC) was calculated as percent of the nontreated control. Final results for the control of brown rust of wheat by the compound of Formula I, penthiopyrad and mixtures are reported as an average of the relative AUDPC calculated over all […] field trials. Statistical analysis was done according to ANOVA and Tukey's test (p=0.10).

Test [2] deals with Puccinia striiformis (PUCCST). In words: Field assessment of Compound I and penthiopyrad on yellow rust of wheat (AUDPC % control). The conditions noted are these: AUDPC-based, 2 field trials.
Source text: as §1
Fungicidal treatments containing the compound of Formula I and penthiopyrad, either individually or as a two-way mixture, were assessed against yellow rust of wheat (PUCCST) in two separate field trials. In the first trial, fungicidal treatments were applied twice at B31-32 (early curative, 2% infection at application on L3) and B37-39 (0% infection at application on L) growth stages of winter wheat (TRZAW, Fairplay variety). The treatments were part of an experimental trial designed as a randomized complete block with four replications and a plot of approximately 1×6 m. Treatments were applied at water volume of 200 L/ha, using a backpack plot sprayer (BKPCKENG, F110-015 Hardi (3) Flat fan nozzle) and pressurized at 200 kPa.
In the second trial, fungicidal treatments containing the compound of Formula I and penthiopyrad, either individually or as a two-way mixture, were applied twice at B31-32 (early curative, 5% infection on L5 at application) and B37-39 (early curative, 5% infection on L1 and L2 at application) growth stages of wheat (TRZAW, Torch variety). The treatment was part of an experimental trial designed as a randomized complete block with four replications and a plot of approximately 2×3 m. Treatments were applied at water volume of 200 L/ha, using a backpack precision plot sprayer (BKCKAIR, F110-03 Hypro (4) Flat fan nozzle) and pressurized at 300 kPa.
as §2, with “yellow” for “brown”

Test [3] relates to Zymoseptoria tritici (SEPTTR). In words: Field assessment of Compound I and penthiopyrad on leaf blotch of wheat (AUDPC % control). The conditions noted are these: AUDPC-based, 3 field trials.
Source text: as §1
Fungicidal treatments containing the compound of Formula I and penthiopyrad, either individually or as a two-way mixture, were assessed against leaf spot of wheat (SEPTTR) in three separate field trials. In the first trial, fungicidal treatments were applied at B33 (3% infection at application on L3) growth stage of winter wheat (TRZAW, Dinosor variety). The treatments were part of an experimental trial designed as a randomized complete block with four replications and a plot of approximately 1×6 m. Treatments were applied at water volume of 200 L/ha, using a backpack plot sprayer (BKPCKENG, FLATFANA nozzle) and pressurized at 200 kPa.
In the second trial, fungicidal treatments were applied twice at B32 (curative, 25% infection at application on L5) and B37-39 (5% infection at application on L3) growth stages of winter wheat (TRZAW, Consort variety). The treatments were part of an experimental trial designed as a randomized complete block with four replications and a plot of approximately 1×2 m. Treatments were applied at water volume of 200 L/ha, using a backpack plot sprayer (BKPCKAIR, Flat fan nozzle) and pressurized at 210 kPa.
In the final trial, fungicidal treatments were applied twice at B32 (protective, 15% infection at application on L6) and B37-39 (12% infection at application on L5) growth stages of winter wheat (TRZAW, Smaragd variety). The treatments were part of an experimental trial designed as a randomized complete block with four replications and a plot of approximately 2×3 m. Treatments were applied at water volume of 200 L/ha, using a backpack plot sprayer (BICYCAIR, FLATFANA nozzle) and pressurized at 220 kPa.
Disease severity (percentage of visual diseased foliage on whole plot or leaves) in […] field trials was recorded following EPPO PP1/26 guideline prescriptions. Area under the disease progress curve (AUDPC) was calculated for each plot in both trials using the sets of recorded severity data. Relative AUDPC (% control based on AUDPC) was calculated as percent of the nontreated control. Final results for the control of leaf spot of wheat by the compound of Formula I, penthiopyrad and mixtures are reported as an average of the relative AUDPC calculated over all three field trials. […]

Regarding `CC(C)CC(C)c1sccc1NC(=O)c1cn(C)nc1C(F)(F)F` (stereo not drawn) [Penthiopyrad, N-[2-(1,3-dimethylbutyl)-3-thienyl]-1-methyl-3-(trifluoromethyl)-1H-pyrazole-4-carboxamide], the “PUCCRT % Control” value is 84.2% in test [1] (rate 125 g ai/ha) and 85.1% in test [1] (rate 200 g ai/ha). In addition, the “PUCCST % Control” value in test [2] (rate 125 g ai/ha) stood at 39.6%; in test [2] (rate 200 g ai/ha) it was 46.5%. Further, the “SEPTTR % Control” value in test [3] (rate 125 g ai/ha) is on record as 42.3%; in test [3] (rate 200 g ai/ha) it was 51.4%.

(Values after patent US20190297888A1, “FUNGICIDAL COMPOUNDS AND MIXTURES FOR FUNGAL CONTROL IN CEREALS” (Dow AgroSciences LLC, priority 2016, published 2019).)
